Several values for one entry are separate records, joined by “and”; a condition that tells them apart may be missing. Identical values can stand only once. Like-named read-outs stand apart in the source and are kept apart here.
Experiments:
[1] = molecular target: hH1R (Homo sapiens, UniProt P35367); assay: biochemical; assay type: binding
[2] = molecular target: T1, hH4R (Homo sapiens, UniProt Q9H3N8); assay: Radioligand competition binding with [3H]histamine, Sf9 cell membranes
[3] = molecular target: gpH1R (Cavia porcellus, UniProt P31389); assay: Histamine H1 receptor assay on isolated guinea pig ileum
[4] = molecular target: T2, hH3R (Homo sapiens, UniProt Q9Y5N1); assay: Radioligand competition binding with [3H]Nα-methylhistamine, Sf9 cell membranes
[5] = molecular target: T3, hH2R (Homo sapiens, UniProt P25021); assay type: binding
[6] = molecular target: gpH2R (Cavia porcellus, UniProt P47747); design: species or system guinea pig
[7] = molecular target: T3, hH2R; assay: [35S]GTPγS binding assay, Sf9 cell membranes; assay type: biochemical
[8] = molecular target: T1, hH4R; assay: [35S]GTPγS binding assay, Sf9 cell membranes; assay type: biochemical
[9] = molecular target: T2, hH3R; assay: [35S]GTPγS binding assay, Sf9 cell membranes; assay type: biochemical
[10] = hH3R pKi, [3H]Nα-methylhistamine (Kd 8.6 nM, c = 3 nM), mean ± SEM
[11] = hH2R pKi, [3H]tiotidine (Kd […], c = 10 nM), mean ± SEM
[12] = hH1R pKi, [3H]mepyramine (Kd 4.5 nM, c = 5 nM), mean ± SEM

Chain of gpH1R (P31389 whole entry): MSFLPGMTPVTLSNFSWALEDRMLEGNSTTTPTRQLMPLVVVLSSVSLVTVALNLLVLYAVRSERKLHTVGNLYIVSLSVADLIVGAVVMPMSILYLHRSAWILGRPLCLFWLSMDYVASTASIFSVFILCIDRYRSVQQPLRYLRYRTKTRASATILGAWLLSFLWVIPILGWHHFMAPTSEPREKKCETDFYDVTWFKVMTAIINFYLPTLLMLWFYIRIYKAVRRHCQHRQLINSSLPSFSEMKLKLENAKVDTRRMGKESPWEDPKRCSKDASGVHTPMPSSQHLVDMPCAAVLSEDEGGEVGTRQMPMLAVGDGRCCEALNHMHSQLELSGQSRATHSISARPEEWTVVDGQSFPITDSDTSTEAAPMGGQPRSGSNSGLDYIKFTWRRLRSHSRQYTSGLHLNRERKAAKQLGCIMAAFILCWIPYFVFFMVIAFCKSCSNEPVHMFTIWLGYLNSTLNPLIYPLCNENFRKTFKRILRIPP
T3 sequence (P25021 whole entry): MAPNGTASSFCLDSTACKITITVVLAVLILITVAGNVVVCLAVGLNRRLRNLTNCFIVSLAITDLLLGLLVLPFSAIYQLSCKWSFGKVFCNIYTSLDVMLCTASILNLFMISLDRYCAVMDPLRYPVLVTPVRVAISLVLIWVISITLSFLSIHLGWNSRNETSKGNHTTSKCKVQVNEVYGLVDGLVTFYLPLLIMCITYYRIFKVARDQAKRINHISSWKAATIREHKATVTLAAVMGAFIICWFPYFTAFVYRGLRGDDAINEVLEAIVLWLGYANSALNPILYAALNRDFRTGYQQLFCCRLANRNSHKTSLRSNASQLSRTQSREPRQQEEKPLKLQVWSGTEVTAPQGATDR
T3 sequence (P63092 1-380 isoform P63092-2 partner): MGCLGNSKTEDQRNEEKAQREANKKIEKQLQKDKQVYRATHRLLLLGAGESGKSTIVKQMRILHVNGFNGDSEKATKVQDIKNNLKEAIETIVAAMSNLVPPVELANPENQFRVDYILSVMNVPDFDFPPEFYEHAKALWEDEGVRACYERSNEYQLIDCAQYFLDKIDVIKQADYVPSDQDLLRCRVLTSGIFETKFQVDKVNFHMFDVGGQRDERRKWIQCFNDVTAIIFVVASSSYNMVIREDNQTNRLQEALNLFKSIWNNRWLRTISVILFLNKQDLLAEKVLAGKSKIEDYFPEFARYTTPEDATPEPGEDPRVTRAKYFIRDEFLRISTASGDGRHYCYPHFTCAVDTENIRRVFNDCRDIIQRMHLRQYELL
Chain of gpH2R (P47747 whole entry): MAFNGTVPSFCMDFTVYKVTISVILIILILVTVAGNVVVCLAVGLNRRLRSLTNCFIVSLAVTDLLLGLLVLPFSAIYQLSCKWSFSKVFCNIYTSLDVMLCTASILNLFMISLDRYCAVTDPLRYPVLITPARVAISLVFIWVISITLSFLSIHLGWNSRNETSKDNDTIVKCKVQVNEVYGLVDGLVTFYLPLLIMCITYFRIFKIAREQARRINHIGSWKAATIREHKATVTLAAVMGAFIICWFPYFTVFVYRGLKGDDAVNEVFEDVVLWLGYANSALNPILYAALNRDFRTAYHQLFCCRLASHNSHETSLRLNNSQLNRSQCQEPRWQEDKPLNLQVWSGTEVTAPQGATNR
T2 sequence (Q9Y5N1 whole entry): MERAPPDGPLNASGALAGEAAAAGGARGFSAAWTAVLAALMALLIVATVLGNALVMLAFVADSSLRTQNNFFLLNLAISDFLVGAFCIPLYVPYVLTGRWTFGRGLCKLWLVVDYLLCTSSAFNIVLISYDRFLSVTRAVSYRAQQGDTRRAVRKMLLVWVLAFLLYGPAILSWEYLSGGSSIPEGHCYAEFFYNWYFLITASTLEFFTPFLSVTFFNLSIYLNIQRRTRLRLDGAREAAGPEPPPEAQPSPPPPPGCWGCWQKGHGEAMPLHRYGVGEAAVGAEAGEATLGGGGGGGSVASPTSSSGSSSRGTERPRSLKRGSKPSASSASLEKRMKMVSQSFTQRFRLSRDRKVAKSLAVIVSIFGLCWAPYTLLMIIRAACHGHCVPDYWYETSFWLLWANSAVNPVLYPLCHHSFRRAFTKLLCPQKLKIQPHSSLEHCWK
Chain of hH1R (P35367 whole entry): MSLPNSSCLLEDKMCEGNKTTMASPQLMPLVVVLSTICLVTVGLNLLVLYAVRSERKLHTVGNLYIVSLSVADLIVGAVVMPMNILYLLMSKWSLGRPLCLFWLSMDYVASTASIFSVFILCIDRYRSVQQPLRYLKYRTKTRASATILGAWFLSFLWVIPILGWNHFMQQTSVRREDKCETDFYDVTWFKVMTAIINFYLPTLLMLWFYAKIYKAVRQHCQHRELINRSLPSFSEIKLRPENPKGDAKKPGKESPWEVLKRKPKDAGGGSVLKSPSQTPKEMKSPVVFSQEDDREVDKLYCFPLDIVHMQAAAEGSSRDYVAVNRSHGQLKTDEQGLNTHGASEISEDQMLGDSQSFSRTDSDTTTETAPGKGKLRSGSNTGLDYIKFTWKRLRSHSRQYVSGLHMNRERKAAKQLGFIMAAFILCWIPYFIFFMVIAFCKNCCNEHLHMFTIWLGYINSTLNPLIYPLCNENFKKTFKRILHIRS

| Ki ([1]; hH1R pKi) | Ki ([2]; hH4R pKi) | Kb [3] | Ki [4, 10] | Ki [5, 11] | EC50 [6] | gpH2R Emax [6] | Compound | other results |
| --- | --- | --- | --- | --- | --- | --- | --- | --- |
| > 10 µM | 200 nM | 631 nM | 112 nM | 174 nM | 49 nM | 0.96 and 0.96 ± 0.01 | N=C(NCCCNC(=N)NCCCc1c[nH]cn1)NCCCc1c[nH]cn1 [Compound 53] |  |
| > 10 µM | 661 nM | 1290 nM | 145 nM | 407 nM | 38 nM | 0.94 ± 0.01 | N=C(NCCCCNC(=N)NCCCc1c[nH]cn1)NCCCc1c[nH]cn1 [Compound 54] |  |
| > 3.16 µM | 427 nM | 2040 nM | 52.5 nM | 151 nM | 16.6 nM | 0.90 ± 0.04 | N=C(NCCCCCCNC(=N)NCCCc1c[nH]cn1)NCCCc1c[nH]cn1 [Compound 55] |  |
| 1.26 µM | 20.9 nM | 229 nM | 19.1 nM | 33.9 nM | 25.1 nM | 0.71 ± 0.04 | N=C(NCCCCCCCCCCNC(=N)NCCCc1c[nH]cn1)NCCCc1c[nH]cn1 [Compound 56] |  |
| > 10 µM | 52500 nM | 832 nM | 11000 nM | 234 nM | 20.4 nM | 0.94 ± 0.03 | N=C(NCCCCCCCCNC(=N)NCCCc1cnc(N)s1)NCCCc1cnc(N)s1 [Compound 59] | difference in pKi (H2R) over pKi (H1,3,4R) ([5]; hH2R selectivity from radioligand binding): at least 1.5 log units; EC50 [7]: 295 nM; hH2R Emax [7]: 0.40 ± 0.05; Kb [8]: 263 µM; hH4R Emax [8]: 0; Kb [9]: 89100 nM; hH3R Emax [9]: 0 |
| > 10 µM | 33900 nM | 4270 nM | 2750 nM | 4470 nM | 4900 nM | 0.20 and 0.20 ± 0.02 | N=C(NCCCCCCCCNC(=N)NCCCn1ccnc1)NCCCn1ccnc1 [Compound 60] |  |
| > 1 µM | 74.1 nM | 1410 nM | 32.4 nM | 117 nM | 10.2 nM | 0.91 ± 0.03 | Cc1nc(N)sc1CCCNC(=N)NCCCCCCCCNC(=N)NCCCc1c[nH]cn1 [Compound 61] | EC50 [7]: 589 nM; hH2R Emax [7]: 0.54 ± 0.05; Kb [8]: 204 µM; hH4R Emax [8]: 0; Kb [9]: 66.1 nM; hH3R Emax [9]: 0 |
| > 1 µM | 107 nM | 977 nM | 37.2 nM | 53.7 nM | 5.62 nM | 1.02 ± 0.06 | N=C(NCCCCCCCCNC(=N)NCCCc1cnc(N)s1)NCCCc1c[nH]cn1 [Compound 62] | EC50 [7]: 309 nM; hH2R Emax [7]: 0.45 ± 0.04; Kb [8]: 372 µM; hH4R Emax [8]: 0; Kb [9]: 81.3 nM; hH3R Emax [9]: 0 |
|  | 26.3 nM | 58900 nM | 155 nM | 2750 nM | 7940 nM | 0.58 ± 0.07 | CNC(=N)NCCCc1c[nH]cn1 [Compound 127] | Ki [1, 12]: > 31.6 µM |
|  | 13.5 nM | 8320 nM | 93.3 nM | 4900 nM | 7240 nM | 0.55 ± 0.07 | CCNC(=N)NCCCc1c[nH]cn1 [Compound 128] | Ki [1, 12]: > 31.6 µM |
|  |  |  |  | 3020 nM |  | 0.83 ± 0.03 | CCCNC(=N)NCCCc1c[nH]cn1 [Compound 129, 1-[3-(1H-Imidazol-4-yl)propyl]-3-propylguanidine] | Ki ([1]; Ki hH1R, bound stated): > 1 µM; Ki [1, 12]: > 31.6 µM; Ki ([2]; Ki hH4R, bound stated): < 100 nM; Ki ([4]; Ki hH3R, bound stated): < 100 nM; Ki ([5]; Ki hH2R, bound stated): > 1000 nM |
| > 10 µM | 38 nM | 5370 nM | 91.2 nM | 4170 nM | 1550 nM | 0.87 ± 0.04 | CC(C)NC(=N)NCCCc1c[nH]cn1 [Compound 130] |  |
| > 10 µM | 9.12 nM | 4070 nM | 61.7 nM | 776 nM | 832 nM | 0.86 ± 0.04 | CCCCNC(=N)NCCCc1c[nH]cn1 [Compound 131] |  |
|  | 17.8 nM | 10200 nM | 66.1 nM | 759 nM | 1350 nM | 0.86 ± 0.08 | CC(C)CNC(=N)NCCCc1c[nH]cn1 [Compound 132] | Ki [1, 12]: > 31.6 µM |
| > 100 µM | 219 nM |  | 372 nM | 2510 nM | 15100 nM | 0.92 ± 0.03 | CC(C)(C)NC(=N)NCCCc1c[nH]cn1 [Compound 133] |  |
| > 10 µM | 6.76 nM | 4470 nM | 91.2 nM | 933 nM | 363 nM | 0.90 ± 0.02 | CCCCCNC(=N)NCCCc1c[nH]cn1 [Compound 134] |  |
| > 10 µM | 25.1 nM | 7240 nM | 115 nM | 794 nM | 240 nM | 0.89 ± 0.05 | CC(C)CCNC(=N)NCCCc1c[nH]cn1 [Compound 135] |  |
| > 3.16 µM | 126 nM | 794 nM | 107 nM | 110 nM | 195 nM | 1.13 ± 0.07 | CCCCCCCCNC(=N)NCCCc1c[nH]cn1 [Compound 136] | EC50 [7]: 138 nM; hH2R Emax [7]: 0.48 ± 0.02; Kb [8]: 209 µM; hH4R Emax [8]: 0; EC50 [9]: 28.8 nM; hH3R Emax [9]: –0.53 ± 0.03; quality of action at hH3R ([9]; [35S]GTPγS binding assay): inverse agonistic activity |
| 2 µM | 97.7 nM | 182 nM | 31.6 nM | 141 nM | 295 nM | 0.90 ± 0.03 | CCCCCCCCCCNC(=N)NCCCc1c[nH]cn1 [Compound 137] | gpH1R pA2 ([3]; guinea pig ileum, antagonism of histamine-induced contraction): 6.74 |
| 2.95 µM | 12.6 nM | 195 nM | 29.5 nM | 603 nM | 234 nM | 0.91 and 0.91 ± 0.03 | CCCCCCCCCCCCNC(=N)NCCCc1c[nH]cn1 [Compound 138] |  |
| > 3.16 µM | 5620 nM | 437 nM | 2040 nM | 468 nM | 269 nM | 0.60 ± 0.02 | CCCCCCCCCCCCNC(=N)NCCCc1sc(N)nc1C [Compound 139] | EC50 [7]: 6920 nM; EC50 [8]: 13.8 µM; hH4R Emax [8]: –0.97 ± 0.01; quality of action at hH4R ([8]; [35S]GTPγS binding assay): inverse agonistic activity; Kb [9]: 4270 nM; hH3R Emax [9]: 0 |
| > 3.16 µM | 11200 nM | 372 nM | 14100 nM | 269 nM | 562 nM | 0.70 ± 0.01 | CCCCCCCCCCCCNC(=N)NCCCc1cnc(N)s1 [Compound 140] |  |
| > 3.16 µM | 12900 nM | 372 nM | 6460 nM | 1260 nM |  | 0 | CCCCCCCCCCCCNC(=N)NCCCn1ccnc1 [Compound 141] | gpH2R pEC50 [6]: not active |
| > 10 µM | 38 nM | 5750 nM |  | 3160 nM | 1510 nM |  | c1nc(CCCNC2=NCCCN2)c[nH]1 [Compound 145, N-[3-(1H-imidazol-4-yl)propyl]-1,4,5,6-tetrahydropyrimidin-2-amine] | Ki ([4]; hH3R pKi): 186 nM; gpH2R Emax ([6]; guinea pig right atrium, relative to maximal increase in heart rate induced by histamine (Emax = 1.00)): 1.00 ± 0.03 |
|  |  |  |  |  |  |  | CNCCc1cnc[nH]1 [[^3H]N^α-methylhistamine, reference compound] | Kd ([4]; read-out: Kd of radioligand at hH3R, Sf9 membranes): 8.6 nM |
